Test results from US20220347294A1, “COMPOSITIONS AND METHODS FOR INCREASING THE EFFICACY OF IMMUNOTHERAPIES AND VACCINES” (The Regents of the University of Michigan, priority 2019, published 2022).

What was measured:
Assay type in all cases: in vivo, BALB/c mice
[1] = test system: CT26 cells; assay: Therapeutic oral gavage plus α-PD-1 in the CT26 tumor model
Procedure: (A) 1.5×10^5 CT26 cells were inoculated in BALB/c mice subcutaneously (sc) on day 0. Mice were gavaged from day 7 (5 times per week). On days 11, 15, 19 and 23, α-PD-1 was injected intraperitoneally (ip) at 100 μg per dose. (B) The average tumor growth curves for mice gavaged with various compounds. Data represent mean±SEM. (C) Individual tumor growth curves and (D) survival rate curves of various groups. […] All the data are from 2-3 independent experiments; n=10 (B, C, D), n=7-10 (E, F) *p<0.05, **p<0.01, analysed by two-way ANOVA (B), one-way ANOVA (E, F) or log-rank (Mantel-Cox) test.
(B) The average tumor growth curves and individual tumor growth curve for mice gavaged with inulin or inulin gel (60 mg/dosage). 1.5×10^5 CT26 cells were inoculated in BALB/c mice subcutaneously. Gavage started from day 7 (5 times per week) and 100 μg of α-PD-1 was ip injected on days 11, 15, 19, 23 and 27. (C) The survival rate curves of various groups. […] PBS was used as a control. […] Shown are the average and individual tumor growth curves for tumor-bearing mice. IgG antibody was used as a control group. Data represent mean SEM. All the data are from 2-3 independent experiments; n=10 (B, C), n=5 (D, I), n=10-15 (E), n=4-7 (G, F), *p<0.05, **p<0.01, ***p<0.001, analysed by one-way ANOVA (E, F), two-way ANOVA (B, I), or log-rank (Mantel-Cox) test (C).
Female C57BL/6 or BALB/c mice of 6-8-week old were obtained from Jackson Laboratory. BALB/c mice were inoculated with 1.5×10^5 CT26 cells per mouse, while C57BL/6 mice were inoculated with 1.2×10^6 MC38 cells per mouse on the right flank by subcutaneous injection on day 0. Tumor-bearing mice were randomly assigned to different groups on day 5. For prophylactic antitumor study, mice were received oral gavage with melatonin (100 mg/Kg bodyweight/dosage), EGCG (100 mg/Kg bodyweight/dosage), fucoidan (200 mg/Kg bodyweight/dosage), oligofructose (120 mg/dosage), or inulin (120 mg/dosage) three times for one week prior to tumor inoculation. After tumor inoculation, mice received oral gavage three times in the first week, followed by five times per week. Mice were injected i.p. with α-PD-1 antibody (100 μg/dosage) on days 10, 14, 18 and 22 post tumor inoculation. For the therapeutic therapy, mice were inoculated with tumor cells on day 0 as indicated above and treated with the indicated samples by oral gavage starting day 7 post tumor inoculation.

[2] = test system: CT26 cells; assay: Prophylactic oral gavage plus α-PD-1 in the CT26 tumor model
Procedure: FIG. 1A-F: In vivo screening of the candidate materials to prophylactically improve the anti-tumor efficacy of α-PD-1. (A) Mice were prophylactically gavaged various samples on day −7 for three times. Then 1.5×10^5 CT26 cells were inoculated in BALB/c mice subcutaneously (s.c.) on day 0. Mice were gavaged three times again in the first week post tumor inoculation and 5 times per week from day 7. α-PD-1 was i.p. injected on days 10, 14, 18 and 24 at 100 μg/dose. (B) Individual tumor growth curves and (C) average tumor growth curves for mice gavaged with various compounds. (D) Survival rate curves of various groups. (E) The average frequency of AH1-specific CD8^+ T cells in peripheral blood on day 22. (F) The representative scatter plots were measured via flow cytometry. Data represent mean±SEM. *p<0.05, **p<0.01, analyzed by two-way ANOVA (B), or t-test (E), log-rank (Mantel-Cox) test (D).
Among the FDA's list, five candidate materials were selected for the initial screening. Melatonin, found in pineal gland and gastrointestinal tracta, regulates sleep cycle and circadian rhythm. Epigallocatechin gallate (EGCG) is a natural antioxidant in plants. […]
Mice were cared for under the guidelines from federal, state and local. […] Tumor size was measured at preset time, and tumor volume was calculated as length×width^2. […]

[3] = test system: CT26 tumor; assay: Tumor microenvironment analysis (tumor-infiltrating cells, flow cytometry); conditions: combined with α-PD-1 IgG, day 24
Procedure: After treatment with various samples, tumor tissues were excised at preset time points for analysis of tumor-infiltrating T cells. Tumor tissues were excised, cut into small pieces, and incubated with collagenase type IV (1 mg/ml) and of DNase I (0.1 mg/ml) with gentle shaking. After 30 min, cell suspension was filtered through a 70-μm strainer. Cells were washed with FACS buffer and blocked with anti-CD16/32 antibody. Cells were then stained with various antibodies (CD4 Monoclonal Antibody (GK1.5)-PE (eBioscience), APC-Anti-CD45 Rat Monoclonal Antibody (clone: 30-F11), FITC-Anti-CD45 Rat Monoclonal Antibody (clone: 30-F11), FITC-Rat Anti-Mouse CD8a Clone 53-6.7 (BD Biosciences), PE labeled H-2L-restricted SPSYVYHQF (SEQ ID NO.: 1), FITC-Anti-CD86 Rat Monoclonal Antibody (clone: GL-1, BioLegend), PE-CD11c Armenian Hamster anti Mouse (Clone: N418, eBioscience), PE-Cy7-Anti-mouse PD-1 (clone: 29F.1A12, BioLegend), FITC-CD44 Rat anti-Human/Mouse (clone: IM7, eBioscience), PE-Cy7-CD62L Monoclonal Antibody (MEL-14) (eBioscience), PE-Tcf1/Tcf7 (C63D9) Rabbit mAb (Cell Signaling Technology, #14456), PE-Cy7-Anti-mouse CD86 (Clone: GL1, BD Bioscience), FITC anti-mouse/human CD11b (M1/70, BioLegend), PE-anti-mouse F4/80 (BM8, BioLegend), or APC anti-mouse CD206 (MMR, BioLegend)). The cells were washed and stained with DAPI, or 7-AAD, or efluor 450 for flow cytometric analysis.

inulin
combination efficacy with α-PD-1 against tumor growth after reducing the dosage by half ([1]; 60 mg for inulin, 50 mg/Kg for melatonin): did not compromise
animal survival ([1]; therapeutic oral gavage from day 7, combined with α-PD-1 IgG): extended animal survival
anti-tumor efficacy ([1]; therapeutic oral gavage from day 7, combined with α-PD-1 IgG, compared among candidate agents): strongest anti-tumor efficacy
anti-tumor efficacy compared with α-PD-1 alone ([2]; prophylactic oral gavage from one week before tumor inoculation, combined with α-PD-1 i.p. 100 μg/dose): best efficacy
mice still surviving on day 50 ([2]; prophylactic oral gavage, inulin 120 mg/dosage, combined with α-PD-1): 60%
intratumoral infiltration of T cells compared with α-PD-1 IgG alone [3]: significantly enhanced
